For data set [1], the system named is HPV16 pseudovirus. Nature of the data set: Luciferase assay: HPV16 pseudovirus with renilla luciferase reporter (HPV16wpA-RL). As to conditions: renilla luciferase reporter behind HPV16 promoter. (In a reporter assay the amount or activity of a reporter protein is the signal.)
Description: The protocol for the secondary screen was identical to that of the primary screen with the exception that all volumes were scaled up by a factor of four. RL activity was measured using the Renilla Luciferase Assay System (Promega).
Data set [2] is described as follows: in vitro. Conditions: human.
The test system of data set [3] is HPV16 pseudoviruses. Nature of the data set: microbe, parasite or virus in culture. It is filed as cell-based. As to conditions: Human papillomavirus 16, HEK-293T, 48 h. In outline: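 Viability was read by CellTiter Glo luminescence on the same wells used for the SEAP infection read-out, after 48 hrs further incubation.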
Data set [4] deals with HPV16 virus. Description: Wild type HPV16 infection in 293T cells, early viral gene expression by real time PCR. It is filed as cell-based. Conditions: 5 to 10 μM (FIG. 3: 10 μM), 48 hours post infection. How it is done:
FIG. 3. Inhibition of infection by HPV 16 virus. Shown is the relative efficiency of infection by HPV16 virus in 293T cells as scored by quantifying early viral transcription using real time PCR for E2 (dark grey bars), E5 (white bars) and E7 (light grey bars) containing mRNAs at 48 hours post-infection in the absence (DMSO—vehicle only, values set at 100%) or the presence of the indicated compound (10 μM concentration). Data points shown are the average of triplicate sample values. The dotted line indicates the normalized value for no drug (set as 100% infection value).
The 21 selected compounds were also tested for their ability to inhibit infection by bonafide HPV16 in 293T cells by measuring early viral gene expression by real time PCR at 48 hours post infection (FIG. 3) after treatment of the cell with 5 to 10 μM of each compound. Consistently with the data of reporter gene assays, HPV early gene expression was inhibited by Compounds 4, 13, 14, 18 and 20. Given the large differences in IC50 and CD50, and the reproducible capacity to inhibit infection by HPV16 pseudovirus and HPV16 virus in different cell types, Compounds 13 and 14 were selected for further analysis.
After 2 day infection, total RNA was isolated from infected cell lysate and treated with DNase I (Promega) as previously. (Pyeon, D. et al., Establishment of human papillomavirus infection requires cell cycle progression, PLos Pathog. 2009 February; 5(2):e1000318. Epub 2009 Feb. 27). Complementary DNA (cDNA) was synthesized from the normalized total RNA with the SuperScript cDNA synthesis kit (Invitrogen). All oligonucleotide primers (0.5 μM) for PCR are previously published (Pyeon D. et al., Production of infectious human papillomavirus independently of viral replication and epithelial cell differentiation, Proc. Nat'l Acad. Sci. USA, 2005 Jun. 28; 102(26):9311-6, Epub 2005 Jun. 15) or listed in Table 2.
Conventional PCR was performed with Taq DNA polymerase (Promega) and the following cycle: denaturation at 94° C. for 5 min, 42 cycles of 94° C. for 30 sec., 55° C. for 1 min., and 72° C. for 1 min., followed by extension at 72° C. for 7 min. Final products were analyzed by 1% agarose gel electrophoresis and ethidium bromide staining. Quantitative RT-PCR was performed using QuantiTect SYBR green PCR kit (Qiagen) with the following cycle: denaturation at 95° C. for 5 min. and 40 cycles of 95° C. for 30 sec., 55° C. for 30 sec., and 72° C. for 30 sec.

[5] abbreviates: Primary HTS Viability % Average.
[6] abbreviates: read-out: Infectivity (SEAP Activity), 3 μM HTS standard concentration, 293T cells, 48 hrs.
The mark [7] stands for this setting: read-out: Infectivity vs. viability, 3 μM HTS standard concentration, ratio infectivity/viability.
The mark [8] stands for this setting: read-out: Primary HTS SEAP vs Viability, Table 2, first pair of columns (c2).
The mark [9] stands for this setting: read-out: Primary HTS SEAP vs Viability, Table 2, second pair of columns (c4).

The record followed here is US9949980B2, “Drugs to prevent HPV infection” (Wisconsin Alumni Research Foundation, priority 2008, dated 2018).

“Also recorded” adds a separate entry of the source. Where two headings read alike, the source gives them in different places.

Turning to `CCOC(=O)CCc1c(C)nc2c(C)c(-c3ccccc3)nn2c1O` [Compound 1, ethyl 3-(7-hydroxy-3,5-dimethyl-2-phenylpyrazolo[1,5-a]pyrimidin-6-yl)propanoate], the “Luciferase assay RL % Average” value in data set [1] was determined as 64.85%. Moreover, the results for the viability at 52 h, 3 μM in data set [2] (setting [5]) and in data set [2] (Viability (CelTiter Glow)) were 85% and 93.4%, respectively. Moreover, the activity at 3 µM in data set [3] (setting [6]) was 22.9%; in data set [3] (setting [7]) it was 24.5%; in data set [3] (setting [8]), 13.1%; in data set [3] (setting [9]), 32.6%.

With `Cc1cc(O)n2c(nc3ccccc32)c1C(=O)O` [Compound 2, 1-hydroxy-3-methylpyrido[1,2-a]benzimidazole-4-carboxylic acid], the “Luciferase assay RL % Average” value in data set [1] turned out to be 75.09%. Moreover, the viability (in general, a read-out of living cells in per cent, often relative to untreated cells) at 52 h, 3 μM in data set [2] (Viability (CelTiter Glow)) came out at 101%. Moreover, the activity at 3 µM in data set [3] (setting [6]) was 19.7%; in data set [3] (setting [7]), 19.6%; in data set [3] (setting [8]) it was 13.5%; in data set [3] (setting [9]), 25.9%.

With `Cc1nc2ccccn2c1C(=O)NC(C)c1ccccc1` (stereo not drawn) [Compound 3, 2-methyl-N-(1-phenylethyl)imidazo[1,2-a]pyridine-3-carboxamide], in data set [1], the “Luciferase assay RL % Average” value is reported as 71.67%. For the same molecule, the viability at 52 h, 3 μM in data set [2] (setting [5]) was 105%; in data set [2] (Viability (CelTiter Glow)), 103%. Further, the activity at 3 µM in data set [3] (setting [6]) worked out at 20.8%; in data set [3] (setting [7]) it was 20.3%; in data set [3] (setting [8]), 18.7%; in data set [3] (setting [9]) it was 23%.

As for `Cc1ccccc1C(=O)N1CC(C)CC(C)C1` (stereo not drawn) [Compound 5, 3,5-dimethyl-1-(2-methylbenzoyl)piperidine], the “Luciferase assay RL % Average” value in data set [1] is given as 102.39%. Also, the viability at 52 h, 3 μM in data set [2] (setting [5]) came to 102%; in data set [2] (Viability (CelTiter Glow)), 108%. For the same molecule, the activity at 3 µM was determined as 22.9% in data set [3] (setting [6]), 21.2% in data set [3] (setting [7]), 29.5% in data set [3] (setting [8]) and 16.2% in data set [3] (setting [9]).

With `CCN1C(=O)c2cccc3c(NC(=O)c4ccc(S(=O)(=O)N(C)C)cc4)ccc1c23` [Compound 6, 4-[(dimethylamino)sulfonyl]-N-(1-ethyl-2-oxo-1,2-dihydrobenzo[cd]indol-6-yl)benzamide], in data set [1], the “Luciferase assay RL % Average” value was 71.67%. Moreover, in data set [2] (Viability (CelTiter Glow)), the viability at 52 h, 3 μM was determined as 101%. For the same molecule, the activity at 3 µM amounted to 26.8% in data set [3] (setting [6]), 26.6% in data set [3] (setting [7]), 24.4% in data set [3] (setting [8]) and 29.3% in data set [3] (setting [9]).

As for `Cc1ccccc1OCCc1c(C)n[nH]c1C` [Compound 7, 3,5-dimethyl-4-[2-(2-methylphenoxy)ethyl]-1H-pyrazole], the “Luciferase assay RL % Average” value in data set [1] was 68.26%. Also, in data set [2] (Viability (CelTiter Glow)), the viability at 52 h, 3 μM is 92.9%. For the same molecule, the activity at 3 µM in data set [3] (setting [6]) came to 36.9%; in data set [3] (setting [7]), 39.7%; in data set [3] (setting [8]), 32%; in data set [3] (setting [9]) it was 41.8%.

With `O=C(N(c1cccc(C(F)(F)F)c1)C1C=CS(=O)(=O)C1)C(F)(F)F` (stereo not drawn) [Compound 8, N-(1,1-dioxido-2,3-dihydro-3-thienyl)-2,2,2-trifluoro-N-[3-(trifluoromethyl)phenyl]acetamide], the “Luciferase assay RL % Average” value in data set [1] was 177.47%. For the same molecule, the viability at 52 h, 3 μM came out at 96.4% in data set [2] (setting [5]) and 94.4% in data set [2] (Viability (CelTiter Glow)). Further, the activity at 3 µM came to 27.7% in data set [3] (setting [6]), 29.4% in data set [3] (setting [7]), 37.3% in data set [3] (setting [8]) and 18.1% in data set [3] (setting [9]).

Consider `CN1C(=O)C(c2c[nH]c3ccccc23)(c2c[nH]c3ccccc23)c2ccccc21` [Compound 10, 1′-methyl-1H,1″H-3,3′:3′,3″-terindol-2′(1′H)-one], for which the “Luciferase assay RL % Average” value in data set [1] came out at 30.72%. The viability at 52 h, 3 μM in data set [2] (Viability (CelTiter Glow)) turned out to be 105%. Besides, the activity at 3 µM turned out to be 38.8% in data set [3] (setting [6]), 37% in data set [3] (setting [7]), 34.4% in data set [3] (setting [8]) and 43.2% in data set [3] (setting [9]).

In the case of `O=C1NC(=S)SC1=Cc1ccc(Oc2ccc([N+](=O)[O-])cn2)cc1` [Compound 12, 5-{4-[(5-nitro-2-pyridinyl)oxy]benzylidene)-2-thioxo-1,3-thiazolidin-4-one], in data set [1], the “Luciferase assay RL % Average” value is 105.80%. Besides, the viability at 52 h, 3 μM in data set [2] (Viability (CelTiter Glow)) amounted to 132%. For the same molecule, the activity at 3 µM was determined as 28.3% in data set [3] (setting [6]), 21.5% in data set [3] (setting [7]), 39.4% in data set [3] (setting [8]) and 17.2% in data set [3] (setting [9]).

For `O=S1(=O)C=CC(Nc2cccc(C(F)(F)F)c2)C1` (stereo not drawn) [Compound 16, (1,1-dioxido-2,3-dihydro-3-thienyl)[3-(trifluoromethyl)phenyl]amine], the “Luciferase assay RL % Average” value in data set [1] is recorded as 146.76%. Moreover, the results for the viability at 52 h, 3 μM in data set [2] (setting [5]) and in data set [2] (Viability (CelTiter Glow)) were 98.2% and 92.9%, respectively. Further, the activity at 3 µM in data set [3] (setting [6]) turned out to be 28.4%; in data set [3] (setting [7]), 30.6%; in data set [3] (setting [8]) it was 36.1%; in data set [3] (setting [9]), 20.6%.

Take `COc1cccc(NC(=O)c2ccc(C)c([N+](=O)[O-])c2)c1` [Compound 17, N-(3-methoxyphenyl)-4-methyl-3-nitrobenzamide]: in data set [1], the “Luciferase assay RL % Average” value worked out at 92.15%. Besides, in data set [2] (Viability (CelTiter Glow)), the viability at 52 h, 3 μM was determined as 86.8%. The activity at 3 µM was 43% in data set [3] (setting [6]), 49.6% in data set [3] (setting [7]), 32.9% in data set [3] (setting [8]) and 53.2% in data set [3] (setting [9]).

As for `O=C1NC(=S)SC1=Cc1cc(Br)ccc1OCc1ccccc1Cl` [Compound 18, 5-{5-bromo-2-[(2-chlorobenzyl)oxy]benzylidene}-2-thioxo-1,3-thiazolidin-4-one], in data set [1], the “Luciferase assay RL % Average” value came to 112.63%. The viability at 52 h, 3 μM in data set [2] (setting [5]) was determined as 87.8%; in data set [2] (Viability (CelTiter Glow)), 95.4%. The “Inhibition of HPV16 early gene expression (E2, E5, E7 mRNAs)” value in data set [4] is “reproducible and significant inhibition; also recorded: inhibited”. Further, the activity at 3 µM in data set [3] (setting [6]) is 24.2%; in data set [3] (setting [7]) it was 25.4%; in data set [3] (setting [8]), 27.2%; in data set [3] (setting [9]), 21.2%.

As for `CC(O)c1cccc(NC(=O)c2cc3n(n2)C(C(F)(F)F)CC(c2ccc(F)cc2)N3)c1` (stereo not drawn) [Compound 19, 5-(4-fluorophenyl)-N-[3-(1-hydroxyethyl)phenyl]-7-(trifluoromethyl)-4,5,6,7-tetrahydropyrazolo[1,5-a]pyrimidine-2-carboxamide], in data set [1], the “Luciferase assay RL % Average” value is reported as 88.74%. Besides, the viability at 52 h, 3 μM in data set [2] (setting [5]) is 116%; in data set [2] (Viability (CelTiter Glow)), 107%. Moreover, the activity at 3 µM in data set [3] (setting [6]) was 40.8%; in data set [3] (setting [7]), 37.9%; in data set [3] (setting [8]), 50%; in data set [3] (setting [9]) it was 31.5%.

On to `Cc1cccc(NC(=O)Nc2ccc(C(C)(C)C)cc2)n1` [Compound 21, 1-(4-tert-butylphenyl)-3-(6-methylpyridin-2-yl)urea], for which the “Luciferase assay RL % Average” value in data set [1] is given as 109.22%. Also, the viability at 52 h, 3 μM in data set [2] (setting [5]) and in data set [2] (Viability (CelTiter Glow)) was 92.8% in each case. In addition, the activity at 3 µM in data set [3] (setting [6]) was 43.8%; in data set [3] (setting [7]), 47.2%; in data set [3] (setting [8]), 34.2%; in data set [3] (setting [9]), 53.5%.

As for `Oc1ccccc1C=NNc1nc2c(Cl)cc(Cl)cc2s1` [RF 02710, 2-hydroxybenzaldehyde N-(4,6-dichloro-1,3-benzothiazol-2-yl)hydrazone], the viability at 52 h, 3 μM in data set [2] (Viability (CelTiter Glow)) was determined as 94.9%. The activity at 3 µM was determined as 34.6% in data set [3] (setting [6]) and 36.4% in data set [3] (setting [7]).

Take `ON=Cc1ccc(Cl)s1` [SEW 06085, 5-chlorothiophene-2-carbaldehyde oxime]: the viability at 52 h, 3 μM in data set [2] (Viability (CelTiter Glow)) was 103%. Moreover, the activity at 3 µM in data set [3] (setting [6]) stood at 54.9%; in data set [3] (setting [7]), 53.2%.
